Experiment [1] relates to genotype 1a-H77 subgenomic replicon cell line. The experiment can be described thus: microbe, parasite or virus in culture. The class given is cell-based, HCV. As to conditions: Hepatitis C virus, read-out: EC50 1a.
Experiment [2] concerns genotype 1b-Con1 subgenomic replicon cell line. The experiment can be described thus: microbe, parasite or virus in culture. The format is cell-based, HCV. The following applies: Hepatitis C virus, read-out: EC50 1b.

As to `COc1c(/C=C/c2ccc(NS(C)(=O)=O)cc2)cc(-n2ccc(=O)[nH]c2=O)cc1C(C)(C)CO` [IB-L1-1.45, (E)-N-(4-(5-(2,4-dioxo-3,4-dihydropyrimidin-1(2H)-yl)-3-(1-hydroxy-2-methylpropan-2-yl)-2-methoxystyryl)phenyl)methanesulfonamide], the results for the EC50 in experiment [1] and in experiment [2] were 10 to 100 nM and less than 10 nM, respectively.

On to `COc1c(C=C(F)c2ccc(NS(C)(=O)=O)cc2)cc(N2CCC(=O)NC2=O)cc1C(C)(C)C` (racemic) [IA-L1-1.21, N-(4-(2-(3-tert-butyl-5-(2,4-dioxotetrahydropyrimidin-1(2H)-yl)-2-methoxyphenyl)-1-fluorovinyl)phenyl)methanesulfonamide], for which the EC50 in experiment [1] and in experiment [2] was less than 10 nM in each case.

On to `COc1c(-c2ccc3c(c2)/C(=N/NS(C)(=O)=O)CC3)cc(-n2ccc(=O)[nH]c2=O)cc1-c1ccco1` [IB-L0-2.55, (E)-N′-(6-(5-(2,4-dioxo-3,4-dihydropyrimidin-1(2H)-yl)-3-(furan-2-yl)-2-methoxyphenyl)-2,3-dihydro-1H-inden-1-ylidene)methanesulfonohydrazide], for which the results for the half-maximal effective concentration (EC50) in experiment [1] and in experiment [2] were 10 to 100 nM and less than 10 nM, respectively.

As for `COc1c(-c2nc3ccc([N+](=O)[O-])cc3o2)cc(N2CCC(=O)NC2=O)cc1C(C)(C)C` [IA-L0-2.6, 1-(3-tert-butyl-4-methoxy-5-(6-nitrobenzo[d]oxazol-2-yl)phenyl) dihydropyrimidine-2,4(1H,3H)-dione], the 50% effective concentration (EC50) in experiment [1] and in experiment [2] was more than 1000 nM each time.

For the compound `COc1c(/C=C/c2ccc(NS(C)(=O)=O)cc2COC(C)C)cc(-n2ccc(=O)[nH]c2=O)cc1C(C)(C)C` [IB-L1-1.25, N-(4-{(E)-2-[3-tert-butyl-5-(2,4-dioxo-3,4-dihydro-2H-pyrimidin-1-yl)-2-methoxy-phenyl]-vinyl}-3-isopropoxymethyl-phenyl)-methanesulfonamide], the values for the concentration for a half-maximal effect (EC50) in experiment [1] and in experiment [2] were 10 to 100 nM and less than 10 nM, respectively.

As for `COc1c(/C=C/c2ccc(NS(C)(=O)=O)cc2N)cc(-n2ccc(=O)[nH]c2=O)cc1C(C)(C)C` [IB-L1-1.28, (E)-N-(3-amino-4-(3-tert-butyl-5-(2,4-dioxo-3,4-dihydropyrimidin-1(2H)-yl)-2-methoxystyryl)phenyl)methanesulfonamide], the EC50 in experiment [1] and in experiment [2] was less than 10 nM throughout.

As to `COc1c(-c2ccc3cc(NS(C)(=O)=O)ccc3c2)cc(-n2ccc(=O)[nH]c2=O)cc1C(C)(C)C` [IB-L0-2.3, N-(6-(3-tert-butyl-5-(2,4-dioxo-3,4-dihydropyrimidin-1(2H)-yl)-2-methoxyphenyl)naphthalen-2-yl)methanesulfonamide], the EC50 in experiment [1] and in experiment [2] was less than 10 nM in each case.

Regarding `COc1c(N2Cc3ccc(NS(C)(=O)=O)cc3C2)cc(-n2ccc(=O)[nH]c2=O)cc1C(C)(C)C` [IB-L0-2.79, N-(2-(3-tert-butyl-5-(2,4-dioxo-3,4-dihydropyrimidin-1(2H)-yl)-2-methoxyphenyl)isoindolin-5-yl)methanesulfonamide], the half-maximal effective concentration (EC50) in experiment [1] and in experiment [2] was 100 to 1000 nM in each case.

Regarding `CNC(=O)c1cc(NS(C)(=O)=O)ccc1/C=C/c1cc(-n2ccc(=O)[nH]c2=O)cc(C(C)(C)C)c1OC` [IB-L1-1.17, 2-{(E)-2-[3-tert-butyl-5-(2,4-dioxo-3,4-dihydro-2H-pyrimidin-1-yl)-2-methoxy-phenyl]-vinyl}-5-methanesulfonylamino-N-methyl-benzamide], the values for the concentration for a half-maximal effect (EC50) in experiment [1] and in experiment [2] were 10 to 100 nM and less than 10 nM, respectively.

In the case of `COc1c(CCc2ccc(NS(C)(=O)=O)cc2)cc(N2CCC(=O)NC2=O)cc1C(C)(C)C` [IA-L5-2-1.1, N-(4-(3-tert-butyl-5-(2,4-dioxotetrahydropyrimidin-1(2H)-yl)-2-methoxyphenethyl)phenyl)methanesulfonamide], the values for the EC50 in experiment [1] and in experiment [2] were 100 to 1000 nM and 10 to 100 nM, respectively.

For `COc1c(/C=C/c2ccc(NS(C)(=O)=O)c(F)c2)cc(N2CCC(=O)NC2=O)cc1C(C)(C)C` [IA-L1-1.26, (E)-N-(4-(3-tert-butyl-5-(2,4-dioxotetrahydropyrimidin-1(2H)-yl)-2-methoxystyryl)-2-fluorophenyl)methanesulfonamide], the EC50 in experiment [1] and in experiment [2] was 10 to 100 nM each time.

Take `COc1c(/C=C/c2ccc(NS(C)(=O)=O)cc2C=NO)cc(-n2ccc(=O)[nH]c2=O)cc1C(C)(C)C` [IB-L1-1.8, N-(4-{(E)-2-[3-tert-Butyl-5-(2,4-dioxo-3,4-dihydro-2H-pyrimidin-1-yl)-2-methoxy-phenyl]-vinyl}-3-(hydroxyimino-methyl)-phenyl)-methanesulfonamide]: the results for the EC50 in experiment [1] and in experiment [2] were 10 to 100 nM and less than 10 nM, respectively.

As to `COc1c(/C=C/c2ccc(NS(C)(=O)=O)cc2CNCCC(C)C)cc(-n2ccc(=O)[nH]c2=O)cc1C(C)(C)C` [IB-L1-1.31, (E)-N-(4-(3-tert-butyl-5-(2,4-dioxo-3,4-dihydropyrimidin-1(2H)-yl)-2-methoxystyryl)-3-((isopentylamino)methyl)phenyl)methanesulfonamide], the EC50 in experiment [1] and in experiment [2] was more than 1000 nM throughout.

As for `COc1c(-c2ccc3c(c2)CC=C3CN(C)S(C)(=O)=O)cc(-n2ccc(=O)[nH]c2=O)cc1C(C)(C)C` [IB-L0-2.16, N-((6-(3-tert-butyl-5-(2,4-dioxo-3,4-dihydropyrimidin-1(2H)-yl)-2-methoxyphenyl)-1H-inden-3-yl)methyl)-N-methylmethanesulfonamide], the EC50 (usually the concentration giving half of the maximal effect) is 100 to 1000 nM in experiment [1] and less than 10 nM in experiment [2].

As for `CCOC(=O)c1cc(NS(C)(=O)=O)ccc1/C=C/c1cc(-n2ccc(=O)[nH]c2=O)cc(C(C)(C)C)c1OC` [IB-L1-1.11, 2-{(E)-2-[3-tert-Butyl-5-(2,4-dioxo-3,4-dihydro-2H-pyrimidin-1-yl)-2-methoxy-phenyl]-vinyl}-5-methanesulfonylamino-benzoic acid ethyl ester], the EC50 is 10 to 100 nM in experiment [1] and less than 10 nM in experiment [2].

Take `COc1c(Br)cc(-n2ccc(=O)[nH]c2=O)cc1/C=C/c1ccc(NS(C)(=O)=O)cc1` [IB-L1-1.52, (E)-N-(4-(3-bromo-5-(2,4-dioxo-3,4-dihydropyrimidin-1(2H)-yl)-2-methoxystyryl)phenyl)methanesulfonamide]: the EC50 in experiment [1] was more than 1000 nM; in experiment [2] it was 100 to 1000 nM.

Regarding `COc1c(/C=C/c2ccc(NS(C)(=O)=O)cc2C(=O)O)cc(-n2ccc(=O)[nH]c2=O)cc1C(C)(C)C` [IB-L1-1.4, (E)-2-(3-tert-butyl-5-(2,4-dioxo-3,4-dihydropyrimidin-1(2H)-yl)-2-methoxystyryl)-5-(methylsulfonamido)benzoic acid], the 50% effective concentration (EC50) is 10 to 100 nM in experiment [1] and less than 10 nM in experiment [2].

Regarding `COc1c(/C=C/c2ccc(NS(C)(=O)=O)cc2C=O)cc(-n2ccc(=O)[nH]c2=O)cc1C(C)(C)C` [IB-L1-1.6, N-(4-{(E)-2-[3-tert-Butyl-5-(2,4-dioxo-3,4-dihydro-2H-pyrimidin-1-yl)-2-methoxy-phenyl]-vinyl}-3-formyl-phenyl)-methanesulfonamide], the EC50 in experiment [1] and in experiment [2] was less than 10 nM each time.

On to `COc1c(-c2nc3ccccc3s2)cc(N2CCC(=O)NC2=O)cc1C(C)(C)C` [IA-L0-2.3, 1-(3-(benzo[d]thiazol-2-yl)-5-tert-butyl-4-methoxyphenyl)dihydro pyrimidine-2,4(1H,3H)-dione], for which the EC50 in experiment [1] and in experiment [2] was 100 to 1000 nM each time.

Regarding `COc1c(-c2nc3cc([N+](=O)[O-])ccc3o2)cc(N2CCC(=O)NC2=O)cc1C(C)(C)C` [IA-L0-2.7, 1-(3-tert-butyl-4-methoxy-5-(5-nitrobenzo[d]oxazol-2-yl)phenyl) dihydropyrimidine-2,4(1H,3H)-dione], the EC50 is more than 1000 nM in experiment [1] and 100 to 1000 nM in experiment [2].

`COc1c(/C=C/c2ccc(NS(C)(=O)=O)cc2)cc(-n2ccc(=O)[nH]c2=O)cc1-c1cccs1` [IB-L1-1.48, (E)-N-(4-(5-(2,4-dioxo-3,4-dihydropyrimidin-1(2H)-yl)-2-methoxy-3-(thiophen-2-yl)styryl)phenyl)methanesulfonamide]: the results for the concentration for a half-maximal effect (EC50) in experiment [1] and in experiment [2] were 100 to 1000 nM and less than 10 nM, respectively.

With `COc1c(/C=C/c2ccc(F)cc2)cc(N2CCC(=O)NC2=O)cc1C(C)(C)C` [IA-L1-1.12, (E)-1-(3-tert-butyl-5-(4-fluorostyryl)-4-methoxyphenyl) dihydropyrimidine-2,4(1H,3H)-dione], the half-maximal effective concentration (EC50) in experiment [1] and in experiment [2] was 100 to 1000 nM in each case.

With `COc1c(-c2nc3cc(NS(C)(=O)=O)ccc3o2)cc(-n2ccc(=O)[nH]c2=O)cc1C(C)(C)C` [IB-L0-2.6, N-(2-(3-tert-butyl-5-(2,4-dioxo-3,4-dihydropyrimidin-1(2H)-yl)-2-methoxyphenyl)benzo[d]oxazol-5-yl)methanesulfonamide], the EC50 in experiment [1] fell in the range of 100 to 1000 nM; in experiment [2], 10 to 100 nM.

For `COC(=O)c1cc(NS(C)(=O)=O)ccc1CCc1cc(-n2ccc(=O)[nH]c2=O)cc(C(C)(C)C)c1OC` [IB-L5-2-1.1, methyl 2-(3-tert-butyl-5-(2,4-dioxo-3,4-dihydropyrimidin-1(2H)-yl)-2-methoxyphenethyl)-5-(methylsulfonamido)benzoate], the results for the EC50 in experiment [1] and in experiment [2] were 10 to 100 nM and less than 10 nM, respectively.

Turning to `COc1c(/C=C/c2ccccc2)cc(N2CCC(=O)NC2=O)cc1C(C)(C)C` [IA-L1-1.18, (E)-1-(3-tert-butyl-4-methoxy-5-styrylphenyl)dihydro-pyrimidine-2,4(1H,3H)-dione], the 50% effective concentration (EC50) in experiment [1] and in experiment [2] was 100 to 1000 nM throughout.

Consider `COc1c(/C=C(\Cl)c2ccc([N+](=O)[O-])cc2)cc(N2CCC(=O)NC2=O)cc1C(C)(C)C` [IA-L1-1.23, 1-{3-tert-butyl-5-[(Z)-2-chloro-2-(4-nitro-phenyl)-vinyl]-4-methoxy-phenyl}-dihydro-pyrimidine-2,4-dione], for which the EC50 in experiment [1] and in experiment [2] was more than 1000 nM in each case.

With `COc1c(-c2ccc3c(c2)CCN(NS(C)(=O)=O)C3)cc(-n2ccc(=O)[nH]c2=O)cc1C(C)(C)C` [IB-L0-2.43, N-(6-(3-tert-butyl-5-(2,4-dioxo-3,4-dihydropyrimidin-1(2H)-yl)-2-methoxyphenyl)-3,4-dihydroisoquinolin-2(1B)-yl)methanesulfonamide], the half-maximal effective concentration (EC50) is more than 1000 nM in experiment [1] and 100 to 1000 nM in experiment [2].
